{"source": "DBAASP", "assay_in_all_cases": "≥ marks a high value that may be exact or a test limit, other limits are often not marked, values filed in µg/mL are converted to µM", "key": {"[1]": {"system": "Staphylococcus aureus ATCC 25923"}, "[2]": {"system": "Pseudomonas aeruginosa ATCC 27853"}, "[3]": {"system": "Enterococcus faecalis ATCC 29212"}, "[4]": {"system": "Staphylococcus aureus ATCC 29213"}, "[5]": {"system": "Streptococcus agalactiae ATCC 12386"}, "[6]": {"system": "Klebsiella pneumoniae ATCC 13883"}, "[7]": {"system": "Escherichia coli ATCC 25922"}, "[8]": {"system": "Psychrobacter faecalis X29"}, "[9]": {"system": "Enterococcus faecalis 981"}, "[10]": {"system": "Serratia rubidaea X01"}, "[11]": {"system": "Rhodococcus rhodochrous X15"}, "[12]": {"system": "Bacillus licheniformis X39"}, "[13]": {"system": "Klebsiella pneumoniae 08040724"}, "[14]": {"system": "Staphylococcus carnosus KHS"}, "[15]": {"system": "Candida albicans ATCC 2002"}, "[16]": {"system": "Enterococcus faecium NTCC 12697"}, "[17]": {"system": "Bacillus subtilis ATCC 6633"}, "[18]": {"system": "Staphylococcus aureus NCTC 12493"}, "[19]": {"system": "Klebsiella pneumoniae ATCC 43816"}, "[20]": {"system": "Pseudomonas aeruginosa ATCC 9027"}, "[21]": {"system": "Staphylococcus aureus ATCC 43300"}, "[22]": {"system": "Staphylococcus aureus ATCC 6538"}, "[23]": {"system": "Staphylococcus aureus NCTC 10788"}, "[24]": {"system": "Pseudomonas aeruginosa CMCCB 10104"}, "[25]": {"system": "Escherichia coli ATCC 8739"}, "[26]": {"system": "Bordetella bronchiseptica CUN 11844-99"}, "[27]": {"system": "Staphylococcus aureus ΔmprF"}, "[28]": {"system": "Yersinia pestis KIM pYV"}, "[29]": {"system": "Pseudomonas aeruginosa CUN 4158-02"}, "[30]": {"system": "Staphylococcus aureus"}, "[31]": {"system": "Staphylococcus aureus ΔmprFpRBsyn"}, "[32]": {"system": "Acinetobacter baumannii ATCC 19606"}, "[33]": {"system": "Brucella abortus 9.49 (per-)"}, "[34]": {"system": "Penicillium digitatum PHI-26"}, "[35]": {"system": "Staphylococcus aureus KCTC 1621"}, "[36]": {"system": "Staphylococcus epidermidis KCTC 1917"}, "[37]": {"system": "Escherichia coli KCTC 1682"}, "[38]": {"system": "Pseudomonas aeruginosa KCTC 1637"}, "[39]": {"system": "Salmonella typhimurium KCTC 1926"}, "[40]": {"system": "Pseudomonas aeruginosa H1001"}, "[41]": {"system": "Bacillus subtilis KCTC 3068"}}, "note": "Where “and” joins values, the source holds several entries; their conditions need not be identical. Equal values may be shown once.", "data": [{"smiles": "CC[C@H](C)[C@H](NC(=O)CN)C(=O)NCC(=O)N[C@@H](CCCCN)C(=O)N[C@@H](Cc1ccccc1)C(=O)N[C@@H](CC(C)C)C(=O)N[C@@H](Cc1cnc[nH]1)C(=O)N[C@@H](CO)C(=O)N[C@@H](C)C(=O)N[C@@H](CCCCN)C(=O)N[C@@H](CCCCN)C(=O)N[C@@H](Cc1ccccc1)C(=O)N[C@@H](C)C(=O)N[C@@H](CCCCN)C(=O)N[C@@H](C)C(=O)N[C@@H](Cc1ccccc1)C(=O)N[C@H](C(=O)N[C@@H](C)C(=O)N[C@@H](CCC(=O)O)C(=O)N[C@H](C(=O)N[C@@H](CCSC)C(=O)N[C@@H](CC(N)=O)C(=O)N[C@@H](CO)C(N)=O)[C@@H](C)CC)C(C)C", "note": "[GIGKFLHSAKKFAKAFVAEIMNS]", "values": [{"measurement": "MIC", "setting": "[1]", "value": 10, "unit": "µM"}, {"measurement": "MIC", "setting": "[2]", "value": 20, "unit": "µM"}, {"measurement": "MIC", "setting": "[3]", "value": 10, "unit": "µM"}, {"measurement": "MIC", "setting": "[4]", "value": 4.01, "unit": "µM"}, {"measurement": "MIC", "setting": "[5]", "value": 0.401, "unit": "µM"}, {"measurement": "MIC", "setting": "[6]", "value": 10, "unit": "µM"}, {"measurement": "MIC", "setting": "[7]", "value": 2, "unit": "µM"}]}, {"smiles": "CC[C@H](C)[C@@H]1NC(=O)CNC(=O)[C@@H](NC(=O)[C@H](CCCN=C(N)N)NC(=O)[C@@H](NC(=O)[C@H](CCCCN)NC(=O)[C@H](CC(=O)O)NC(=O)[C@H](CC(C)C)NC(=O)[C@@H](NC(=O)[C@H](CC(N)=O)NC(=O)[C@@H](NC(=O)[C@H](C)NC(=O)[C@H](Cc2ccccc2)NC(=O)[C@H](CCCCN)NC(=O)[C@H](CCCCN)NC(=O)CNC(=O)[C@H](C)NC(=O)[C@H](CCC(=O)O)NC(=O)[C@H](CCCCN)NC(=O)[C@@H](NC(=O)[C@@H](NC(=O)[C@H](CC(N)=O)NC(=O)[C@H](Cc2c[nH]c3ccccc23)NC(=O)[C@H](CC(C)C)NC(=O)CN)[C@@H](C)O)[C@@H](C)CC)[C@@H](C)CC)C(C)C)[C@@H](C)CC)CSSC[C@@H](C(=O)N[C@@H](CCCCN)C(=O)N[C@H](C(=O)O)[C@@H](C)O)NC(=O)CNC(=O)CNC(=O)[C@H](C)NC1=O", "note": "[GLWNTIKEAGKKFAINVLDKIRCGIAGGCKT]", "values": [{"measurement": "MIC", "setting": "[1]", "value": 150, "unit": "µM"}, {"measurement": "MIC", "setting": "[8]", "value": 4.5, "unit": "µM"}, {"measurement": "MIC", "setting": "[9]", "value": "≥ 75", "unit": "µM"}, {"measurement": "MIC", "setting": "[10]", "value": 4.6, "unit": "µM"}, {"measurement": "MIC", "setting": "[11]", "value": 2.3, "unit": "µM"}, {"measurement": "MIC", "setting": "[12]", "value": 19, "unit": "µM"}, {"measurement": "MIC", "setting": "[13]", "value": "≥ 150", "unit": "µM"}, {"measurement": "MIC", "setting": "[7]", "value": 150, "unit": "µM"}, {"measurement": "MIC", "setting": "[14]", "value": 19, "unit": "µM"}]}, {"smiles": "CC[C@H](C)[C@@H]1NC(=O)[C@H](CCCCN)NC(=O)[C@@H](NC(=O)[C@H](CCCCN)NC(=O)[C@H](CC(C)C)NC(=O)[C@H](CCCCN)NC(=O)[C@H](CC(=O)O)NC(=O)[C@H](CC(C)C)NC(=O)[C@H](CC(C)C)NC(=O)[C@@H](NC(=O)[C@H](C)NC(=O)[C@H](C)NC(=O)[C@@H](NC(=O)[C@H](CC(N)=O)NC(=O)[C@H](CCCCN)NC(=O)[C@H](C)NC(=O)[C@@H](NC(=O)[C@H](CC(N)=O)NC(=O)[C@H](CCCCN)NC(=O)[C@H](C)NC(=O)[C@@H](NC(=O)[C@H](CC(=O)O)NC(=O)[C@H](CCSC)NC(=O)[C@H](Cc2ccccc2)NC(=O)CN)[C@@H](C)O)C(C)C)C(C)C)[C@@H](C)O)CSSC[C@@H](C(=O)O)NC(=O)CNC(=O)CNC(=O)[C@H]([C@@H](C)O)NC1=O", "note": "[GFMDTAKNVAKNVAATLLDKLKCKITGGC]", "values": [{"measurement": "MIC", "setting": "[15]", "value": 4.81, "unit": "µM"}, {"measurement": "MIC", "setting": "[1]", "value": 2.42, "unit": "µM"}, {"measurement": "MIC", "setting": "[16]", "value": "≥ 256", "unit": "µM"}, {"measurement": "MIC", "setting": "[17]", "value": 12.5, "unit": "µM"}, {"measurement": "MIC", "setting": "[18]", "value": "≥ 256", "unit": "µM"}, {"measurement": "MIC", "setting": "[19]", "value": "≥ 128", "unit": "µM"}, {"measurement": "MIC", "setting": "[20]", "value": "≥ 128", "unit": "µM"}, {"measurement": "MIC", "setting": "[21]", "value": "> 100", "unit": "µM"}, {"measurement": "MIC", "setting": "[22]", "value": 25, "unit": "µM"}, {"measurement": "MIC", "setting": "[23]", "value": "≥ 32", "unit": "µM"}, {"measurement": "MIC", "setting": "[24]", "value": 4.81, "unit": "µM"}, {"measurement": "MIC", "setting": "[7]", "value": 4.81, "unit": "µM"}, {"measurement": "MIC", "setting": "[25]", "value": "≥ 100", "unit": "µM"}]}, {"smiles": "CC[C@H](C)[C@H](NC(=O)[C@H](CCCN=C(N)N)NC(=O)[C@H](CCCN=C(N)N)NC(=O)[C@H](CC(C)C)NC(=O)[C@H](Cc1ccccc1)NC(=O)[C@@H](NC(=O)[C@H](CCCN=C(N)N)NC(=O)[C@H](CCSC)NC(=O)[C@@H](NC(=O)[C@H](CCCCN)NC(=O)[C@H](CCCCN)NC(=O)[C@H](CO)NC(=O)[C@@H](NC(=O)CNC(=O)[C@H](CCCN=C(N)N)NC(=O)[C@H](CC(C)C)NC(=O)[C@@H](NC(=O)[C@@H](N)CCCCN)[C@@H](C)CC)C(C)C)[C@@H](C)CC)[C@@H](C)O)C(=O)N[C@@H](CO)C(=O)N[C@@H](CCCCN)C(=O)N[C@@H](CC(=O)O)C(=O)N[C@H](C(=O)N[C@@H](CC(C)C)C(=O)N[C@H](C(=O)NCC(=O)N[C@@H](CCCCN)C(=O)N[C@@H](CCCCN)C(N)=O)[C@@H](C)O)[C@@H](C)CC", "note": "[KILRGVSKKIMRTFLRRISKDILTGKK]", "values": [{"measurement": "MIC", "setting": "[26]", "value": 1.26, "unit": "µM"}, {"measurement": "MIC", "setting": "[27]", "value": 1.26, "unit": "µM"}, {"measurement": "MIC", "setting": "[28]", "value": 5.02, "unit": "µM"}, {"measurement": "MIC", "setting": "[29]", "value": 1.26, "unit": "µM"}, {"measurement": "MIC", "setting": "[30]", "value": 20.1, "unit": "µM"}, {"measurement": "MIC", "setting": "[31]", "value": 1.26, "unit": "µM"}, {"measurement": "MIC", "setting": "[21]", "value": 40.2, "unit": "µM"}, {"measurement": "MIC", "setting": "[32]", "value": 0.628, "unit": "µM"}, {"measurement": "MIC", "setting": "[7]", "value": 1.26, "unit": "µM"}, {"measurement": "MIC", "setting": "[33]", "value": 0.628, "unit": "µM"}]}, {"smiles": "CC[C@H](C)[C@H](NC(=O)CN)C(=O)NCC(=O)N[C@@H](C)C(=O)N[C@H](C(=O)N[C@@H](CC(C)C)C(=O)N[C@H](C(=O)N[C@H](C(=O)N[C@@H](CC(C)C)C(=O)N[C@H](C(=O)N[C@H](C(=O)NCC(=O)N[C@@H](CC(C)C)C(=O)N1CCC[C@H]1C(=O)N[C@@H](C)C(=O)N[C@@H](CC(C)C)C(=O)N[C@H](C(=O)N[C@@H](CO)C(=O)N[C@@H](Cc1c[nH]c2ccccc12)C(=O)N[C@H](C(=O)N[C@@H](CCCCN)C(=O)N[C@@H](CCCN=C(N)N)C(=O)N[C@@H](CCCCN)C(=O)N[C@@H](CCCN=C(N)N)C(=O)N[C@@H](CCC(N)=O)C(=O)N[C@@H](CCC(N)=O)C(N)=O)[C@@H](C)CC)[C@@H](C)CC)[C@@H](C)O)[C@@H](C)O)C(C)C)[C@@H](C)CC)C(C)C", "note": "[GIGAVLIVLTTGLPALISWIKRKRQQ]", "values": [{"measurement": "MIC", "setting": "[34]", "value": "8 µM and 15 µM"}]}, {"smiles": "CC[C@H](C)[C@H](N)C(=O)N[C@@H](CC(C)C)C(=O)N[C@@H](CCCCN)C(=O)N[C@@H](Cc1c[nH]c2ccccc12)C(=O)N[C@@H](CCCCN)C(=O)N[C@@H](Cc1c[nH]c2ccccc12)C(=O)N1CCC[C@H]1C(=O)N[C@@H](Cc1c[nH]c2ccccc12)C(=O)N[C@@H](Cc1c[nH]c2ccccc12)C(=O)N1CCC[C@H]1C(=O)N[C@@H](Cc1c[nH]c2ccccc12)C(=O)N[C@@H](CCCN=C(N)N)C(=O)N[C@@H](CCCN=C(N)N)C(N)=O", "note": "[ILKWKWPWWPWRR]", "values": [{"measurement": "MIC", "setting": "[35]", "value": 2.58, "unit": "µM"}, {"measurement": "MIC", "setting": "[36]", "value": 5.16, "unit": "µM"}, {"measurement": "MIC", "setting": "[37]", "value": 5.16, "unit": "µM"}, {"measurement": "MIC", "setting": "[38]", "value": 10.3, "unit": "µM"}, {"measurement": "MIC", "setting": "[39]", "value": 5.16, "unit": "µM"}, {"measurement": "MIC", "setting": "[40]", "value": 5.16, "unit": "µM"}, {"measurement": "MIC", "setting": "[41]", "value": 2.58, "unit": "µM"}]}]}
